# Measured values as given in patent US8609635B2, “Fused tricyclic silyl compounds and methods of use thereof for the treatment of viral diseases” (priority 2010, dated 2013).
# How the values were obtained:
# [1] = Pharmacokinetic analysis in rats; format: in vivo, Male Sprague-Dawley rats; conditions: Rat, dihydrochloride salt, 5 mpk/PO, 2.5 mpk/IV
# Method: Various pharmacokinetic parameters for compound 56 were measured in rats, dogs and monkeys as described below.
# Male Sprague-Dawley rats (Charles River, Co.) were pre-cannulated (femoral artery) in order to facilitate precise blood sampling times, to increase throughput and to reduce the stress on the animals caused by serial bleedings. Following an overnight fast, rats were dosed with the dihydrochloride salt of compound 56 orally at 5 mg/kg as a suspension in 0.4% hydroxylpropyl methylcellulose (HPMC) or intravenously at 2.5 mg/kg as a solution in 20% hydroxypropyl-β-cyclodextrin (20% HPβCD). Blood was collected into heparin-containing tubes serially from each animal at 0.25, 0.5, 1, 2, 4, 6, 8, 24 and 48 hr (PO), and 0.167, 0.25, 0.5, 1, 2, 4, 6, 8, 24 and 48 hr (IV) post-dosing and centrifuged to generate plasma. The plasma samples were stored at […] until analysis.
# Collected plasma samples were analyzed for the presence of compound 56 using LC-MS/MS as described below.
# The HPLC/API-MS/MS system for the example data consisted of a HPLC pumping system and a auto sampler with the sample tray refrigeration option connected directly to a triple quadrupole mass spectrometer with an API source. Typical HPLC methods for the example data was based on a fast gradient of two solvents: solvent A consisted of 0.1% formic acid in water, and solvent B consisted of 0.1% formic acid in acetonitrile. A fast linear gradient (start at 90% A for 0.2 min, ramp to 95% B from 0.2 to 0.5 min, hold at 95% B […], then ramp back to 90% A from 1.0 to 1.1 min, then hold at, […] from 1.1 to 1.2 min) was used. The flow rate for the HPLC system was set to 1 mL/min throughout the HPLC gradient; the HPLC column was a Halo C18 column (2.7 micron particle size, 50×2.1 mm). The example compounds were analyzed by positive ion atmospheric pressure chemical ionization tandem mass spectrometry (APCI-MS/MS). As a general procedure, selected reaction monitoring (SRM) methods were developed for each compound prior to analysis of the plasma samples. Normally, the individual SRM transitions were based on a fragmentation from the protonated molecule ([MH].) to a characteristic product ion.
# Using the methods described above, the following pharmacokinetic parameters were calculated in rats, dogs and monkeys and the results are summarized in the table below.
# HCV replicon gt1a_H77 = experiment: Cell-based HCV replicon assay (TaqMan), genotype 1a (H77); conditions: Hepatitis C virus, 72 h, replicon 1a (H77); replicon RNA by TaqMan, day 3
# Outline: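 Replicon cells seeded at 5000 cells/well with compound (10 serial 2-fold dilutions from 250 μM to 1 μM top dose; 0.5% DMSO, 5% FBS) and lysed on day 3. Replicon RNA quantified by multiplex TaqMan RT-PCR (NS5B amplicon, GAPDH control); ΔCT versus concentration fitted to sigmoid dose-response. Chimeras carry patient-isolate NS5A.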
structure (smiles),measurement,setting,value
COC(=O)N[C@H](C(=O)N1CC(F)(F)C[C@H]1c1ncc(-c2ccc(-c3ccc4c(ccc5nc([C@@H]6C[Si](C)(C)CN6C(=O)[C@@H](NC(=O)OC)C(C)C)[nH]c54)c3)cc2)[nH]1)C(C)C [Compound 56],Effective Half-Life,[1],7.6 h
same,Systemic Clearance,[1],0.336 L/h/kg
same,Volume of Distribution,[1],3.7 L/kg
same,Oral Bioavailability,[1]; dose-normalized AUC between PO and IV,28%
same,EC50,HCV replicon gt1a_H77,0.016 nM
